Assay results taken from article PMC6630837 (Pharmaceuticals, 2019).
“Also recorded” adds a separate entry of the source.

What was measured:
[1] = target: T1, butyrylcholinesterase (BuChE) (Equus caballus, UniProt P81908); experiment: biochemical; settings: 100 µM compound
T1 construct: (BuChE, equine serum); from tissue; host or cells: equine serum
Protocol: Experimental procedures for cholinesterase inhibition a s sa y s. For cholinesterase inhibition tests (acetylcholinesterase (AChE, electrophorus
el ec t r ic u s) a n d b ut yr ylcholinesterase (BuChE, equine serum), the Ellman’s cholorimetric assay1 was followed, with minor modifications. DMSO
was kept within 1.25% cuvette concentration. The chromogenic agent DTNB [5,5’-dithiobis(2-nitrobenzoic acid)] was fixed at 0.975 mM
con centration; 0. 1 M phosphate buffer (pH 8. 0) was employed, T = 25 °C, and the reaction was monitored for 125 s. […]
of inhibition, the substrate concentration (acetylthiocholine iodide for AChE; S- butyr ylthiocholine iodide for BuChE) was fixed at 29 µM for
AChE and at 18.2 µM concentration for BuChE.
Lineweaver-Burk plot (or double reciprocal plot, 1/V vs . 1/ [S ]) wa s u se d for estimating both, the mode of inhibition and the inhibition constants […]
Competitive inhibition (inhibitor only bonds the free enzyme):
KKiiii = [II ]KKMM iiaaaa
M i xe d inhibition (inhibitor binds both, the free and the complexed enzyme) :
Uncompetitive (the inhibitors only binds the complexed enzyme):
N on -competitive (inhibitor binds both the free enzyme and the complexed enzyme with equal affinity) :
Table S3. […]
of the synthesized flavone analogues at 100 µ M.
C omp ou n d N o. AChE B uChE

[2] = system: human epithelial colorectal adenocarcinoma (Caco-2) cells; experiment: Cell viability (MTT) assay in Caco-2 cells; assay type: cell-based; settings: at 100 μM
Protocol: (§1) Cell viability assay in human epithelial colorectal adenocarcinoma (Caco-2) and human liver hepatocellular (HepG2) cells. Caco-2 and HepG2 Cells were cultured in DMEM-Dulbecco’s modified Eagle’s medium (Sigma-Aldrich) supplemented with 10% (v/v) inactivated fetal bovine serum (PAA Laboratories GmbH), 2 mM L-glutamine (Sigma-Aldrich), 100 U/mL penicillin and 100 μg/mL streptomycin (Sigma-Aldrich), in a humidified incubator at 37 °C with a 5% CO2 atmosphere. Cells (3 × 10^4 cells/well) were seeded into 96-well plates and incubated at 37 °C in 5% CO2 atmosphere. After 24 h, compounds were added at different concentrations (0.1–100 μM) and incubated in the same conditions. DMSO controls were performed to evaluate a possible solvent cytotoxicity, while pure DMSO was used as a cytotoxic drug. After the established incubation time with compounds, MTT (5 mg/mL) in PBS (Sigma-Aldrich) was added (10 μL) to each well. After 3 h incubation at 37 °C, in 5% CO2, the supernatant was removed. The formazan crystals were solubilized using ethanol/DMSO (1:1) (100 μL), and the absorbance values were determined at 570 nm on the microplate reader Victor3 from PerkinElmer Life Sciences.

[3] = Cell viability (MTT) assay in Caco-2 cells; assay type: cell-based, human; settings: human; Caco-2 cells, 0.1 μM to 100 μM; read-out: IC50 (cytotoxicity)
Protocol: as §1

[4] = LogD7.4 determination (octan-1-ol/phosphate buffer, LC-MS); assay type: physicochemical; settings: octan-1-ol/phosphate buffer, pH 7.4, octan-1-ol/phosphate buffer pH 7.4, 25 °C; read-out: Log D7.4 (partition coefficient at pH 7.4)
Protocol: LogD7.4 determination. The in-silico prediction tool ALOGPS [4] was used to estimate the octanol-water partition coefficients (log P) of the compounds. […] For each category, two different ratios (volume of octan-1-ol to volume of buffer) were defined as experimental parameters (Table 2).
Equal amounts of phosphate buffer (0.1 M, pH 7.4) and octan-1-ol were mixed and shaken vigorously for 5 min to saturate the phases. The mixture was left until separation of the two phases, and the buffer was retrieved. Stock solutions of the test compounds were diluted with buffer to a concentration of 1 μM. For each compound, three determinations per octan-1-ol:buffer ratio were performed in different wells of a 96-well plate. The respective volumes of buffer-containing analyte (1 μM) were pipetted to the wells and covered by saturated octan-1-ol according to the chosen volume ratio. […] The aqueous phase was transferred to a 96-well plate for analysis by liquid chromatography-mass spectrometry (LCMS, see below).
Results are presented as the mean ± SD of three independent experiments.
LC-MS measurements. […] The system was controlled with the Agilent MassHunter Workstation Data Acquisition software (version B.01.04). The column used was an AtlantisR T3 C18 column (2.1 × 50 mm) with a 3 μm-particle size (Waters Corp., Milford, MA, USA). The mobile phase consisted of eluent A: 10 mM ammonium acetate, pH 5.0 in 95:5, H2O:MeCN; and eluent B: MeCN containing 0.1% formic acid. The flow rate was maintained at 0.6 mL/min. […] MS parameters such as fragmentor voltage, collision energy, and polarity were optimized individually for each drug, and the molecular ion was followed for each compound in the multiple reaction monitoring mode. The concentrations of the analytes were quantified by the Agilent Mass Hunter Quantitative Analysis software (version B.01.04).

[5] = system: SH-SY5Y human neuroblastoma cells; experiment: Neuroprotection against Aβ1-42-induced toxicity, MTT cell viability assay; assay type: cell-based; settings: 50 μM compound, 20 μM Aβ1-42, 24 h, 37 °C
Protocol: Neuroprotective activity assays against Aβ1-42-induced toxicity. From all compounds tested in the above presented assay, the pair 8 and 19 presented the strongest neuroprotective potential, with convincing proof on the importance of the aglycone for the desired neuroprotective effects against H2O2-induced cell injury. […] Here, the MTT assay was used once again to assess cell viability of SH-SY5Y cells treated with 20 μM of Aβ1-42, in the presence of 50 μM of each compound. Similar protocols have been used to screen candidates for AD therapy. Moreover, based on the existing evidence that in situ spontaneous fibrillization of Aβ1-42 in the incubation mixture is important in the triggering of neurotoxic effects, we added the Aβ1-42 peptide fragment dissolved in DMSO to the culture medium prior to incubation, together with each compound in study. […] Even though there is published evidence that undifferentiated SH-SY5Y cells are not as sensitive to Aβ1-42-induced neurite degeneration and apoptosis as differentiated ones, with 20 μM of Aβ1-42 we were able to observe a significant decrease in cellular MTT reduction capacity, corresponding to roughly half of the cell viability rates observed in the non-treated control.
Neuroprotective assays in human neuroblastoma (SH-SY5Y) cells. […] Differences were considered significant when P < 0.05.

T1 sequence (P81908 whole entry): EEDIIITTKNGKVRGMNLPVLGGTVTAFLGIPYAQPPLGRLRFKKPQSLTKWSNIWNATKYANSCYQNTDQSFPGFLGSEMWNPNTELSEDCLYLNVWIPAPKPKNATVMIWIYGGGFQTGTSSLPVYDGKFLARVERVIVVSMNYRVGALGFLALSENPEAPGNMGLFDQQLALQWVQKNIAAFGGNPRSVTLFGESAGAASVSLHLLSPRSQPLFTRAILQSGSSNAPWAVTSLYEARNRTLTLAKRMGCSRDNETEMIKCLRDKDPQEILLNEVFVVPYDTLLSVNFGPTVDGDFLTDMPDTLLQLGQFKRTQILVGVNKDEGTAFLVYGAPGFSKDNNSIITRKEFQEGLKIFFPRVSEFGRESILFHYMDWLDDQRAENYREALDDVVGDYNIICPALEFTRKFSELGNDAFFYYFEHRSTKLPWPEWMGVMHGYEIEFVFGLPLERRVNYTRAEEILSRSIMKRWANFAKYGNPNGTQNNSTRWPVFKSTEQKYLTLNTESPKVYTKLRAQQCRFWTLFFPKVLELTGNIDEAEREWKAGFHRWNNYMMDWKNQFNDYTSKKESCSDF

O=c1cc(-c2ccc(N3CCOCC3)cc2)oc2c([C@@H]3O[C@H](CO)[C@@H](O)[C@H](O)[C@H]3O)c(O)cc(O)c12 [Compound 19, 8-(β-D-Glucopyranosyl)-5,7-dihydroxy-4′-(morpholin-4-yl)flavone]
BuChE inhibitory efficacy (percentage of inhibition) [1]: n.i .
Cytotoxicity towards Caco-2 cells [2]: did not show any cytotoxicity
IC50 [3]: ≥ 100 µM
logD [4]: 1.8 ± 0.2
Neuroprotective effect against Aβ1-42-induced toxicity (MTT cell viability) [5]: the result with the highest significance when compared to controls; also recorded: the result with the highest significance when compared to the controls
Neuroprotective effect against Aβ1-42-induced toxicity (MTT cell viability) ([5]; listed as 37): fully rescued
